Experiments:
Assay type in all cases: in vivo
[1] = tested on: Septoria tritici (leaf blotch); assay: Test 1 greenhouse foliar spray screen, leaf blotch on wheat; conditions: disease control rating, foliar spray on wheat, 400 ppm (+++ at 100 ppm)
[2] = tested on: Botrytis cinerea (gray mold); assay: Test 1 greenhouse foliar spray screen, gray mold on grape berries; conditions: disease control rating, spray on grape berries, 400 ppm (+++ at 100 ppm)
[3] = tested on: Pseudoperonospora cubensis (downy mildew); assay: Test 1 greenhouse foliar spray screen, downy mildew on squash; conditions: disease control rating, foliar spray on squash, 400 ppm (+++ at 100 ppm)
[4] = tested on: Cercospora beticola (leaf spot); assay: Test 1 greenhouse foliar spray screen, leaf spot on sugar beet; conditions: disease control rating, foliar spray on sugar beet, 400 ppm (+++ at 100 ppm)
[5] = tested on: Twospotted spider mites (Tetranychus urticae Koch); assay: Mite/insect screen, SM; conditions: percent mortality, SAW; for mortality at 200 ppm / mortality at 400 ppm: Tetranychus urticae, read-out: SM RESULTS %; for mortality at 200 ppm: SM & MA RATE 200 PPM
How it was run: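 Foliar spray to runoff (10 psi), 1 h drying; aqueous dilutions from acetone/alcohol emulsifier stock. Mortality (%) after standard exposure.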

[6] = tested on: Erysiphe graminis tritici (powdery mildew); assay: Test 1 greenhouse foliar spray screen, powdery mildew on wheat; conditions: disease control rating, foliar spray on wheat, 400 ppm (+++ at 100 ppm)
[7] = tested on: Venturia inaequalis (apple scab); assay: Test 1 greenhouse foliar spray screen, apple scab on apple seedling; conditions: disease control rating, foliar spray on apple seedling, 400 ppm (+++ at 100 ppm)
corn rootworm = assay: Mite/insect screen, CRW; conditions: percent mortality; for mortality at 12 ppm: CRW RATE 12.00 PPM; for mortality at 12 ppm / mortality at 24 ppm: read-out: CRW RESULTS %
How it was run: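 Read-out: % mortality after standard exposure. Formulation: acetone/alcohol (50:50) with emulsifiers at 23 g and 13 g per liter, water-diluted to final test levels.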

[8] = tested on: Puccinia recondita tritici (leaf rust); assay: Test 1 greenhouse foliar spray screen, leaf rust on wheat; conditions: disease control rating, foliar spray on wheat, 400 ppm (+++ at 100 ppm)
[9] = tested on: southern armyworm (Spodopetra eridania Cramer); assay: Mite/insect screen, SAW; conditions: percent mortality, SAW; for mortality at 200 ppm / mortality at 400 ppm: Spodoptera eridania, read-out: SAW RESULTS %; for mortality at 200 ppm: SM & MA RATE 200 PPM
How it was run: (§1)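 Read-out: percent mortality after standard exposure periods. Test solutions were water dilutions of compound dissolved in acetone/alcohol (50:50) with emulsifier blends; leaves were sprayed to runoff on both surfaces and air-dried for one hour before exposure.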

[10] = tested on: melon aphids (Aphis gossypii Glover); assay: Mite/insect screen, MA; conditions: percent mortality, SAW; for mortality at 200 ppm / mortality at 400 ppm: Aphis gossypii, read-out: MA RESULTS %; for mortality at 200 ppm: SM & MA RATE 200 PPM
How it was run: as §1

[11] = tested on: Pyricularia oryzae (rice blast); assay: whole plant or invertebrate; conditions: disease control rating, foliar spray on rice, 400 ppm (+++ at 100 ppm)

Cc1cc(C)c2nccc(NCCc3ccc(Cl)cc3)c2c1 [Example 15, N-[2-(4-chlorophenyl)ethyl]-6,8-dimethyl-4-quinolinamine]
LEAF BLOT [1]: - (0-19% control at 400 ppm)
GRAY MOLD [2]: - (0-19% control at 400 ppm)
DOWN MDEW [3]: +++ (90-100% control at 100 ppm)
LEAF SPOT [4]: +++ (90-100% control at 100 ppm)
mortality at 200 ppm [5]: 0%
mortality at 400 ppm ([5]; SM & MA RATE 400 PPM): 0%
POWD MDEW [6]: - (0-19% control at 400 ppm)
APPL SCAB [7]: + (20-89% control at 400 ppm)
mortality at 12 ppm (corn rootworm): 0%
mortality at 24 ppm (corn rootworm; CRW RATE 24.00 PPM): 0%
LEAF RUST [8]: + (20-89% control at 400 ppm)
mortality at 200 ppm [9]: 0%
mortality at 400 ppm ([9]; SM & MA RATE 400 PPM): 0%
mortality at 200 ppm [10]: 0%
mortality at 400 ppm ([10]; SM & MA RATE 400 PPM): 0%
RICE BLAST [11]: + (20-89% control at 400 ppm)

COc1ccc2nccc(NCCc3ccc(Cl)cc3)c2c1 [Example 16, N-[2-(4-chlorophenyl)ethyl]-6-methoxy-4-quinolinamine]
LEAF BLOT [1]: - (0-19% control at 400 ppm)
GRAY MOLD [2]: - (0-19% control at 400 ppm)
DOWN MDEW [3]: +++ (90-100% control at 100 ppm)
LEAF SPOT [4]: +++ (90-100% control at 100 ppm)
mortality at 200 ppm [5]: 0%
mortality at 400 ppm ([5]; SM & MA RATE 400 PPM): 0%
POWD MDEW [6]: - (0-19% control at 400 ppm)
APPL SCAB [7]: - (0-19% control at 400 ppm)
mortality at 12 ppm (corn rootworm): 0%
mortality at 24 ppm (corn rootworm; CRW RATE 24.00 PPM): 0%
LEAF RUST [8]: + (20-89% control at 400 ppm)
mortality at 200 ppm [9]: 0%
mortality at 400 ppm ([9]; SM & MA RATE 400 PPM): 0%
mortality at 200 ppm [10]: 0%
mortality at 400 ppm ([10]; SM & MA RATE 400 PPM): 0%
RICE BLAST [11]: + (20-89% control at 400 ppm)

CC(CNc1ccnc2ccccc12)(c1ccccc1)c1ccccc1 [Example 34, N-(2,2-diphenylpropyl)-4-quinolinamine]
LEAF BLOT [1]: - (0-19% control at 400 ppm)
GRAY MOLD [2]: - (0-19% control at 400 ppm)
DOWN MDEW [3]: +++ (90-100% control at 100 ppm)
LEAF SPOT [4]: + (20-89% control at 400 ppm)
mortality at 200 ppm [5]: 0%
POWD MDEW [6]: + (20-89% control at 400 ppm)
APPL SCAB [7]: - (0-19% control at 400 ppm)
mortality at 12 ppm (corn rootworm): 0%
LEAF RUST [8]: ++ (90-100% control at 400 ppm)
mortality at 200 ppm [9]: 0%
mortality at 200 ppm [10]: 0%
RICE BLAST [11]: + (20-89% control at 400 ppm)

Fc1ccc(CCNc2ccnc3ccccc23)cc1 [Example 35, N-[2-(4-fluorophenyl)ethyl]-4-quinolinamine]
LEAF BLOT [1]: - (0-19% control at 400 ppm)
GRAY MOLD [2]: - (0-19% control at 400 ppm)
DOWN MDEW [3]: +++ (90-100% control at 100 ppm)
LEAF SPOT [4]: +++ (90-100% control at 100 ppm)
mortality at 200 ppm [5]: 0%
POWD MDEW [6]: + (20-89% control at 400 ppm)
APPL SCAB [7]: - (0-19% control at 400 ppm)
mortality at 12 ppm (corn rootworm): 0%
LEAF RUST [8]: + (20-89% control at 400 ppm)
mortality at 200 ppm [9]: 0%
mortality at 200 ppm [10]: 0%
RICE BLAST [11]: + (20-89% control at 400 ppm)

COc1ccc(CCNc2ccnc3c(F)cccc23)cc1 [Example 36, 8-fluoro-N-[2-(4-methoxyphenyl)ethyl]-4-quinolinamine]
LEAF BLOT [1]: +++ (90-100% control at 100 ppm)
GRAY MOLD [2]: - (0-19% control at 400 ppm)
DOWN MDEW [3]: +++ (90-100% control at 100 ppm)
LEAF SPOT [4]: +++ (90-100% control at 100 ppm)
mortality at 200 ppm [5]: 0%
mortality at 400 ppm ([5]; SM & MA RATE 400 PPM): 0%
SM RESULTS % ([5]; SM & MA RATE 400 PPM): 0%
POWD MDEW [6]: + (20-89% control at 400 ppm)
APPL SCAB [7]: - (0-19% control at 400 ppm)
mortality at 12 ppm (corn rootworm): 0%
CRW RESULTS % (corn rootworm; CRW RATE 24.00 PPM): 0%
mortality at 24 ppm (corn rootworm; CRW RATE 24.00 PPM): 0%
LEAF RUST [8]: +++ (90-100% control at 100 ppm)
mortality at 200 ppm [9]: 0%
mortality at 400 ppm ([9]; SM & MA RATE 400 PPM): 0%
SAW RESULTS % ([9]; SM & MA RATE 400 PPM): 0%
mortality at 200 ppm [10]: 0%
mortality at 400 ppm ([10]; SM & MA RATE 400 PPM): 0%
MA RESULTS % ([10]; SM & MA RATE 400 PPM): 0%
RICE BLAST [11]: +++ (90-100% control at 100 ppm)

COc1ccc(CCNc2ccnc3c(F)cccc23)cc1OC [Example 38, N-[2-(3,4-dimethoxyphenyl)ethyl]-8-fluoro-4-quinolinamine]
LEAF BLOT [1]: - (0-19% control at 400 ppm)
GRAY MOLD [2]: - (0-19% control at 400 ppm)
DOWN MDEW [3]: +++ (90-100% control at 100 ppm)
LEAF SPOT [4]: + (20-89% control at 400 ppm)
mortality at 200 ppm [5]: 0%
mortality at 400 ppm ([5]; SM & MA RATE 400 PPM): 0%
POWD MDEW [6]: + (20-89% control at 400 ppm)
APPL SCAB [7]: - (0-19% control at 400 ppm)
mortality at 12 ppm (corn rootworm): 0%
mortality at 24 ppm (corn rootworm; CRW RATE 24.00 PPM): 0%
LEAF RUST [8]: ++ (90-100% control at 400 ppm)
mortality at 200 ppm [9]: 0%
mortality at 400 ppm ([9]; SM & MA RATE 400 PPM): 0%
mortality at 200 ppm [10]: 0%
mortality at 400 ppm ([10]; SM & MA RATE 400 PPM): 0%
RICE BLAST [11]: - (0-19% control at 400 ppm)

Fc1cc(F)c2nccc(NCCc3ccc(Cl)cc3)c2c1 [Example 41, N-[2-(4-chlorophenyl)ethyl]-6,8-difluoro-4-quinolinamine]
LEAF BLOT [1]: + (20-89% control at 400 ppm)
GRAY MOLD [2]: - (0-19% control at 400 ppm)
DOWN MDEW [3]: ++ (90-100% control at 400 ppm)
LEAF SPOT [4]: +++ (90-100% control at 100 ppm)
mortality at 200 ppm [5]: 0%
mortality at 400 ppm ([5]; SM & MA RATE 400 PPM): 0%
POWD MDEW [6]: + (20-89% control at 400 ppm)
APPL SCAB [7]: - (0-19% control at 400 ppm)
mortality at 12 ppm (corn rootworm): 0%
mortality at 24 ppm (corn rootworm; CRW RATE 24.00 PPM): 0%
LEAF RUST [8]: +++ (90-100% control at 100 ppm)
mortality at 200 ppm [9]: 80%
mortality at 400 ppm ([9]; SM & MA RATE 400 PPM): 40%
mortality at 200 ppm [10]: 0%
mortality at 400 ppm ([10]; SM & MA RATE 400 PPM): 0%
RICE BLAST [11]: ++ (90-100% control at 400 ppm)

COc1ccc(CCNc2ccnc3cc(C(F)(F)F)ccc23)cc1 [Example 42, N-[2-(4-methoxyphenyl)ethyl]-7-(trifluoromethyl)-4-quinolinamine]
LEAF BLOT [1]: - (0-19% control at 400 ppm)
GRAY MOLD [2]: - (0-19% control at 400 ppm)
DOWN MDEW [3]: +++ (90-100% control at 100 ppm)
LEAF SPOT [4]: +++ (90-100% control at 100 ppm)
mortality at 200 ppm [5]: 0%
mortality at 400 ppm ([5]; SM & MA RATE 400 PPM): 0%
POWD MDEW [6]: +++ (90-100% control at 100 ppm)
APPL SCAB [7]: - (0-19% control at 400 ppm)
mortality at 12 ppm (corn rootworm): 0%
mortality at 24 ppm (corn rootworm; CRW RATE 24.00 PPM): 0%
LEAF RUST [8]: ++ (90-100% control at 400 ppm)
mortality at 200 ppm [9]: 0%
mortality at 400 ppm ([9]; SM & MA RATE 400 PPM): 0%
mortality at 200 ppm [10]: 0%
mortality at 400 ppm ([10]; SM & MA RATE 400 PPM): 0%
RICE BLAST [11]: + (20-89% control at 400 ppm)

COc1cccc(CCNc2ccnc3cc(Cl)ccc23)c1 [Example 43, 7-chloro-N-[2-(3-methoxyphenyl)ethyl]-4-quinolinamine]
LEAF BLOT [1]: - (0-19% control at 400 ppm)
GRAY MOLD [2]: - (0-19% control at 400 ppm)
DOWN MDEW [3]: ++ (90-100% control at 400 ppm)
LEAF SPOT [4]: +++ (90-100% control at 100 ppm)
mortality at 200 ppm [5]: 0%
mortality at 400 ppm ([5]; SM & MA RATE 400 PPM): 0%
POWD MDEW [6]: + (20-89% control at 400 ppm)
APPL SCAB [7]: - (0-19% control at 400 ppm)
mortality at 12 ppm (corn rootworm): 0%
mortality at 24 ppm (corn rootworm; CRW RATE 24.00 PPM): 0%
LEAF RUST [8]: - (0-19% control at 400 ppm)
mortality at 200 ppm [9]: 0%
mortality at 400 ppm ([9]; SM & MA RATE 400 PPM): 0%
mortality at 200 ppm [10]: 0%
mortality at 400 ppm ([10]; SM & MA RATE 400 PPM): 0%
RICE BLAST [11]: + (20-89% control at 400 ppm)

Reference: EP0326331B1, “Substituted quinolines and cinnolines” (Dow AgroSciences LLC, priority 1988, dated 1989)
